According to patent publication US5834454A, “Substituted guanidine derivatives, process for production thereof, and pharmaceutical uses thereof” (Sumitomo Pharmaceuticals Company, Limited, priority 1996, dated 1998):

Target: T1, Na^+ /H^+ exchange transport system (Rattus norvegicus, UniProt P26431)
T1 construct: isolated ventricular myocytes (rat); endogenous in cells; host or cells: isolated rat ventricular myocytes (primary cells)
Assay: Inhibitory effect on the Na^+ /H^+ exchange transport system (in vitro), pH change in isolated ventricular myocytes under an acid load
Assay type: cell-based
Protocol: Inhibitry effect on the Na^+ /H^+ exchange transport system (in vitro)
A test was carried out according to the method of Iemori et al. (J. Hypertension, 8, 153 (1990)). In detail, inhibitory effect on the Na^+ /H^+ exchange transport system was evaluated by using as an indication a pH change in isolated ventricular myocytes (rat) under an acid load.

T1 sequence (P26431 whole entry): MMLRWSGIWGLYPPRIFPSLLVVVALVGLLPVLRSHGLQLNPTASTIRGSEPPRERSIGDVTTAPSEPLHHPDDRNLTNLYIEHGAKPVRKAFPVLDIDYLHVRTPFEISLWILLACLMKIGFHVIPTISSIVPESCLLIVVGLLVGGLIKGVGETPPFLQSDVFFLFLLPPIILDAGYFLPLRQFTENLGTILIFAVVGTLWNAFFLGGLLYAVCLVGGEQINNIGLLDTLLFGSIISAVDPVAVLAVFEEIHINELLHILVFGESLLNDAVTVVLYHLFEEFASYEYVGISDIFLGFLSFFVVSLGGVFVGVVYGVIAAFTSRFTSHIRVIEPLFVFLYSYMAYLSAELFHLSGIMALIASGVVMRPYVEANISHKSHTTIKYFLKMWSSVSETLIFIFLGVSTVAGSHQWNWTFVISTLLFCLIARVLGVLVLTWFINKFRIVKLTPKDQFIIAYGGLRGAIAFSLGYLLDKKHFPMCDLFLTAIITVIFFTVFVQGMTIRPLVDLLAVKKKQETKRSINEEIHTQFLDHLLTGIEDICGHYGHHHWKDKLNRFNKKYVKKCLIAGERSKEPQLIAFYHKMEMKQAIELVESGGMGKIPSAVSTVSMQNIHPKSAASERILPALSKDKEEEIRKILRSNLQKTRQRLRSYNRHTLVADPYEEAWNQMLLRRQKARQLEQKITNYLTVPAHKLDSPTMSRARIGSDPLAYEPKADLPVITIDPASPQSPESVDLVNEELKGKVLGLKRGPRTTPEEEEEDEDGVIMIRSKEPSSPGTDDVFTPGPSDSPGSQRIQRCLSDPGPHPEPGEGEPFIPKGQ

IC50 | Compound
300 nM | Cc1ccc2c3c1cc(C(=O)N=C(N)N)n3CCC2=O [Example 1, N-(aminoiminomethyl)-5,6-dihydro-9-methyl-6-oxo-4H-pyrrolo [3,2,1-ij]quinoline-2-carboxamide methanesulfonate]
200 nM | Cc1ccc2c3c1cc(C(=O)N=C(N)N)n3CCO2 [Example 2, N-(aminoiminomethyl)-2,3-dihydro-7-methyl-pyrrolo [1,2,3-de]-1,4-benzoxazine-5-carboxamide methanesulfonate]
300 nM | NC(N)=NC(=O)c1cc2cccc3c2n1CCC3 [Example 3, N-(aminoiminomethyl)-5,6-dihydro-4H-pyrrolo [3,2,1-ij]quinoline-2-carboxamide methanesulfonate]
